The record followed here is BindingDB's records for doi:10.1021/jm000271k (Parke-Davis Pharmaceutical Research, 2000).

One test deals with Cyclin-dependent kinase 4/G1/S-specific cyclin-D1 [L188C] (Homo sapiens, UniProt P11802). Briefly: CDKs Assay.
Conditions: not given
Here is the method: The enzyme was assayed with substrate GST- retinoblastoma in the presence of 25 uM ATP/[gamma-32P] ATP. IC50 is the inhibitor concentration, which inhibits 50% of enzyme activity that catalyzes the transfer of the terminal phosphate from [gamma-32P] labeled ATP to GST- retinoblastoma. Use of 32P-labeled ATP allows this transfer to be monitored by scintillation counting.
The IC50 is the midpoint of a concentration-inhibition curve. Low values mean inhibition by little substance, high ones a need for much substance. For `CCCn1c(=O)ccc2cnc(Nc3ccccc3)nc21` [2-(phenylamino)-8-propyl-7H,8H-pyrido[2,3-d]pyrimidin-7-one], half-maximal inhibition (IC50) was put at 553 nM.

Take `CCn1c(=O)ccc2cnc(Nc3ccc(N4CCOCC4)cc3)nc21` [8-Ethyl-2-(4-(morpholin-4-yl)phenylamino)-8H-pyrido[2,3-d]pyrimidin-7-one]: the midpoint of inhibition, the IC50, lay at 300 nM.

Regarding `O=c1ccc2cnc(Nc3ccccc3)nc2n1C1CCCC1` [8-cyclopentyl-2-(phenylamino)-7H,8H-pyrido[2,3-d]pyrimidin-7-one], it took 210 nM to reach half-maximal inhibition (IC50).

In turn, `CC(C)n1c(=O)ccc2cnc(Nc3ccc(N4CCN(C)CC4)cc3)nc21` [8-Isopropyl-2-[4-(4-methylpiperazin-1-yl)phenylamino]-8H-pyrido[2,3-d]pyrimidin-7-one] returned an IC50 of 32 nM.

On to `O=c1ccc2cnc(Nc3ccccc3)nc2n1C1CC2CCC1C2` (configuration not stated) [8-Bicyclo[2.2.1]hept-2-yl-2-phenylamino-8H-pyrido[2,3-d]pyrimidin-7-one], for which the IC50 turned out to be 38 nM. This IC50 and that of the molecule before are within 1.5-fold of each other.

On to `O=c1ccc2cnc(Nc3ccccc3)nc2n1C1CCCCC1` [8-Cyclohexyl-2-phenylamino-8H-pyrido[2,3-d]pyrimidin-7-one], for which the IC50 amounted to 47 nM. The IC50 values of the last two molecules are within 1.5-fold of each other.

For the molecule `CCn1c(=O)ccc2cnc(Nc3ccc(N4CCN(C)CC4)cc3)nc21` [8-Ethyl-2-[4-(4-methylpiperazin-1-yl)phenylamino]-8H-pyrido[2,3-d]pyrimidin-7-one], the IC50 was determined as 85 nM.

Turning to `CCCCn1c(=O)ccc2cnc(Nc3ccccc3)nc21` [8-Butyl-2-phenylamino-8H-pyrido[2,3-d]pyrimidin-7-one], the IC50 was found to be 1490 nM.

Consider `O=c1ccc2cnc(Nc3ccccc3)nc2n1CC1CO1` (configuration not stated) [8-Oxiranylmethyl-2-phenylamino-8H-pyrido[2,3-d]pyrimidin-7-one], for which the half-inhibitory concentration (IC50) was determined as 5000 nM.

In turn, `Cn1c(=O)ccc2cnc(Nc3ccccc3)nc21` [8-Methyl-2-phenylamino-8H-pyrido[2,3-d]pyrimidin-7-one] showed an IC50 of 5480 nM. This IC50 and that of the molecule before are within 1.5-fold of each other.

Regarding `O=c1ccc2cnc(Nc3ccccc3)nc2n1Cc1ccccc1` [8-benzyl-2-(phenylamino)-7H,8H-pyrido[2,3-d]pyrimidin-7-one], the IC50 was 940 nM.

In turn, `O=c1ccc2cnc(Nc3ccccc3)nc2n1C1CCCCCC1` [8-cycloheptyl-2-(phenylamino)-7H,8H-pyrido[2,3-d]pyrimidin-7-one] gave an IC50 of 182 nM. This IC50 is about 5.2-fold lower than that of the molecule before.

With `CCN(CC)CCOc1ccc(Nc2ncc3ccc(=O)n(C(C)C)c3n2)cc1` [2-({4-[2-(diethylamino)ethoxy]phenyl}amino)-8-(propan-2-yl)-7H,8H-pyrido[2,3-d]pyrimidin-7-one], the IC50 stood at 45 nM.

The same test, now with this note: pH 7.4; 25 °C.
With `CCn1c(=O)ccc2cnc(Nc3cccc(F)c3)nc21` [8-Ethyl-2-(3-fluorophenylamino)-8H-pyrido[2,3-d]pyrimidin-7-one], half-maximal inhibition (IC50) was put at 1400 nM.

Take `CCn1c(=O)ccc2cnc(NC(C)(C)C)nc21` [2-(tert-butylamino)-8-ethyl-7H,8H-pyrido[2,3-d]pyrimidin-7-one]: the IC50 came to 5250 nM.

`CCn1c(=O)ccc2cnc(Nc3ccc(N(C)C)cc3)nc21` [2-{[4-(dimethylamino)phenyl]amino}-8-ethyl-7H,8H-pyrido[2,3-d]pyrimidin-7-one] yielded an IC50 of 330 nM.

On to `CCn1c(=O)ccc2cnc(NC3CCCCC3)nc21` [2-Cyclohexylamino-8-ethyl-8H-pyrido[2,3-d]pyrimidin-7-one], for which inhibition was half-maximal at 3300 nM (IC50).

For the molecule `CCN(CC)CCOc1ccc(Nc2ncc3ccc(=O)n(CC)c3n2)cc1` [2-({4-[2-(diethylamino)ethoxy]phenyl}amino)-8-ethyl-7H,8H-pyrido[2,3-d]pyrimidin-7-one], the IC50 was 160 nM.

On to `CCn1c(=O)ccc2cnc(Nc3ccc(OC)cc3)nc21` [8-ethyl-2-[(4-methoxyphenyl)amino]-7H,8H-pyrido[2,3-d]pyrimidin-7-one], for which the IC50 came to 600 nM.

Regarding `CCn1c(=O)ccc2cnc(Nc3ccc(F)cc3)nc21` [8-ethyl-2-[(4-fluorophenyl)amino]-7H,8H-pyrido[2,3-d]pyrimidin-7-one], half-maximal inhibition (IC50) was put at 1240 nM.

`CCn1c(=O)ccc2cnc(Nc3cccc(OC(F)(F)C(F)F)c3)nc21` [8-Ethyl-2-[3-(1,1,2,2-tetrafluoroethoxy)phenylamino]-8H-pyrido[2,3-d]pyrimidin-7-one] came in with an IC50 of 7830 nM.

`CCNc1ncc2ccc(=O)n(CC)c2n1` [8-ethyl-2-(ethylamino)-7H,8H-pyrido[2,3-d]pyrimidin-7-one] had a concentration for half-maximal inhibition (IC50) of 12000 nM.
